For experiment [1], the system named is A549 (ATCC CCL 185): human lung carcinoma. As to the kind of experiment: In vitro antitumor activity, MTT assay, A549. Format: cell-based. The following applies: for IC50: Homo sapiens, A549, 48 h. The method in brief:
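A549 cells in RPMI 1640 with 10% FBS, 10,000 cells/well, pre-cultured 24 hrs, then exposed 48 hrs at 37° C to compound at 20 to 0.00128 μg/ml final (5-fold steps, DMSO below 0.5%). MTT added for 4 hrs, formazan dissolved in DMSO and read at 540nm; IC50 by linear regression of % of control.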
In general terms: Tetrazolium assays rely on reduction of a dye to a coloured formazan, in cell work by metabolically active cells.

The subject of experiment [2] is Colo205 (ATCC CCL 222): human colon adenocarcinoma. As to the kind of experiment: In vitro antitumor activity, MTT assay, Colo205. The following applies: for IC50: Homo sapiens. Format: cell-based. The method in brief:
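Colo205 cells in RPMI 1640/10% FBS were exposed 48 h at 37 °C to 5-fold serial dilutions, final 20 to 0.00128 µg/ml, DMSO below 0.5%. MTT added for 4 h, formazan dissolved in DMSO, A540 read versus medium control; IC50 by linear regression.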

Experiment [3] relates to SK-OV-3 (ATCC HTB 77): human ovarian adenocarcinoma. As to the kind of experiment: In vitro antitumor activity, MTT assay, SK-OV-3. It counts as cell-based. The following applies: for IC50: Homo sapiens. An outline of the steps: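 Cells seeded at 10,000 per well, grown 24 h, then exposed 48 h at 37 °C to compound at final 20 to 0.00128 μg/ml (5-fold dilutions, DMSO below 0.5%). MTT added for 4 h, formazan dissolved in DMSO, absorbance read at 540 nm; IC50 estimated by linear regression.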

In experiment [4] the test system is K562 (ATCC CCL 243): human chronic myelogenous leukemia. In words: In vitro antitumor activity, MTT assay, K562. Format: cell-based. The following applies: for IC50: Homo sapiens, K562, 48 h. How it is done: (§1) In vitro antitumor activity against human tumor cell lines
(§2) In vitro antitumor activity of the compounds according to the present invention was determined by MTT assay method against the following human tumor cell lines:
K562 (ATCC CCL 243): human chronic myelogenous leukemia
(§3) In this test, the known antineoplastic compounds, Doxorubicin and Sulofenur, were used as the comparative agents.
(§4) Each of the tumor cells was cultured in RPMI 1640 media containing 10% fetal bovine serum, 100 IU/ml penicillin and 100 μg/ml streptomycin, and then periodically subcultured once or twice per week in trypsin-EDTA solution containing 0.05% trypsin and 0.53mM EDTA.4Na. The human tumor cell line thus obtained (10,000cells/100 μl) was plated on 96-well microplate and then cultured for 24 hrs at 37° C. in a 5% CO2 incubator. Test compound was dissolved in DMSO, sterilized with 0.22 μm PVDF filter, and then serially 5-fold diluted from 40 μg/ml to 0.00256μg/ml. 100 μl of the sample solution thus prepared and RPMI 1640 medium only (control group) were added to 96-well microplate containing the human tumor cell, respectively. The final concentration of the test compound was in the range from 20 μg/ml to 0.00128 μg/ml and the concentration of DMSO was below 0.5%. The cells were cultured for 48 hrs at 37° C. in a 5% CO2 incubator. MTT(3-(4,5-Dimethylthiazole-2-yl)-e,5-diphenyltetrazoliumbromide) was dissolved in physiological saline in a concentration of 2 mg/ml and the resulting solution was filtered through 0.22 μm PTFE filter. 25 μl of MTT solution thus prepared was added to each well of 96-well microplate and incubated for additional 4 hrs at 37° C. in a 5% CO2 incubator. Then, the content of microplate was centrifuged at 1000 rpm for 10 min, and supernatant was removed by flicking. The formazan formed from MTT by mitochondrial succinate dehydrogenase was dissolved in 100 μl of DMSO. The absorbance of each well was measured at 540nm by micro ELISA reader and the cytotoxicity was calculated by dividing the absorbance of test group by the absorbance of control group. After the calculated cytotoxicity (%) was plotted, the concentration of 50% tumor growth inhibition concentration (IC50) was estimated by Linear-Regression method.

In experiment [5] the test system is P388 murine leukemia cells. In words: In vivo antitumor activity against P388 murine leukemia cell. Details: species or system BDF1 mouse. The following applies: once per 2 days for 10 days, median survival time. How it is done:
In vivo antitumor activity against P388 murine leukemia cell
P388 murine leukemia cells were injected into BDF1 mouse intraperitoneally and grown in the peritoneal cavity. The P388 cells were periodically exudated and reinjected intraperitoneally into mouse for subculture.
The cells were exudated, washed, resuspended in saline (2×10^7 cells/ml), and then injected intraperitoneally again into BDF1 mouse (2×10^6 cells/0.1 ml).
Test compound dissolved in appropriate vehicle was administered intraperitonealy or orally into the mouse which was implanted with P388 murine leukemia tumor cells in the frequency of once per 2 days for 10 days. The vehicle was administered into the mouse of control group. Then, the number of live animals were daily checked to estimate the median survival time (MST).
T/C ratio(%) of each test compound was calculated according to the following formula, and the test results are shown in Table 6.
T/C(%)=(MST of test group.div.MST of control group)×100

In experiment [6] the test system is Colon 26 murine colon cancer cell. As to the kind of experiment: In vivo antitumor activity against Colon 26 murine colon cancer cell. Details: species or system Balb/C mouse. The following applies: 65 mg/kg p.o., once per 2 days for 10 days; tumor weight. The protocol: In vivo antitumor activity against Colon 26 murine colon cancer cell
Colon 26 murine cancer cells were injected into Balb/C mouse intradermally and grown in mouse abdominal skin to a solid tumor. The Colon 26 tumors were periodically excised from the mouse, digested with an enzyme mixture containing collagenase and DNase, and then intradermally reinjected into mouse for subculture.
The cells were washed, resuspended in saline (5×10^6 cells/ml) and inoculated (5×10^5 cells/0.1 ml) intradermally to abdominal part of Balb/C mouse of which hair was removed in advance. Each test compound was dissolved in a solvent mixture of 60% propylene glycol(PG), 40% cremophor RH60(CP), and distilled water(DW) in the volume ratio of 30:20:50. When the size of tumor reached at appropriate level, the test compound was administered orally into the mouse which was implanted with colon 26 tumor cells in the frequency of once per 2 days for 10 days. The vehicle was also administered into the mouse of control group. The major and minor axis of tumor in each group were regularly measured by vernier calipers to estimate the increase of the tumor volume. Tumor volume was calculated on the basis of the following formula
Tumor volume(mm^3)=(1/2)×[length of major axis(mm)]×[length
When the tumor volume of the control group reached at about 1500 mm^3, the test animals were sacrificed by cervical dislocation and tumor was carefully excised and weighed. The inhibition rate of tumor growth (%) of each test compound was calculated as follows: […]
group.div.Tumor weight of control group)]

Experiment [7] deals with KB (ATCC CCL 17): human epidermoid carcinoma. As to the kind of experiment: In vitro antitumor activity, MTT assay, KB. Format: cell-based. The following applies: Homo sapiens, read-out: IC50 (KB). The protocol: as §1, §2
KB (ATCC CCL 17): human epidermoid carcinoma
as §3, §4

[8] abbreviates: COLO 205, Table 3, 48 hrs, read-out: IC50 (Col205).

Data on six compounds can be found in patent publication US5932742A, “Arylsulfonylimidazolone derivatives as an antitumor agent” (priority 1996, dated 1999).

SMILES strings stand for the structures. Converted amounts (≈) assume the structure as drawn. Structures can show the parent of a compound that is named as a salt. Where two headings read alike, the source gives them in different places.

Consider `Nc1ccc(C(=O)N2CCc3cc(S(=O)(=O)N4C[C@H](c5ccccc5)NC4=O)ccc32)cc1` [Example 65, (S)-(+)-4-phenyl-1-[N-(4-aminobenzoyl)indoline-5-sulfonyl]-4,5-dihydro-2-imidazolone.HCl], for which the concentration for half-maximal inhibition (IC50) (commonly the concentration needed to halve the response being measured) in experiment [1] (Table 5) came to 0.105 µg/mL; in experiment [2] (COLO 205, Table 5, 48 hrs, read-out: IC50 (Colo205)), 0.268 µg/mL; in experiment [3] (SK-OV-3, Table 5, 48 hrs), 0.062 µg/mL; in experiment [4] (Table 5, read-out: IC50 (K562)), 0.829 µg/mL. For the same compound, in experiment [5] (65 mg/kg p.o.), the “T/C rate (%)” value is reported as 138.5%. The “Inhibition rate of tumor growth (%)” value in experiment [6] was 69.2%.

`CC1Cc2cc(S(=O)(=O)n3cc(-c4ccccc4)[nH]c3=O)ccc2N1C(=O)c1ccc(N)cc1` (centres unmarked) [Example 12, 4-phenyl-1-[N-(4-aminobenzoyl)-2-methylindoline-5-sulfonyl]-2-imidazolone.HCl]: the IC50 in experiment [1] (Table 1) is 0.321 µg/mL; in experiment [7] (Table 1, MTT, 48 hrs), 0.072 µg/mL; in experiment [2] (COLO 205, Table 1, 48 hrs, read-out: IC50 (Colo205)), 0.861 µg/mL; in experiment [3] (SK-OV-3, Table 1, 48 hrs), 0.509 µg/mL. The “T/C rate (%)” value in experiment [5] (65 mg/kg p.o.) is 115.4%.

Turning to `O=C(Nc1ccccc1)N1CCc2cc(S(=O)(=O)N3CC(c4ccccc4)NC3=O)ccc21` (centres unmarked) [Example 34, 4-phenyl-1-(N-phenylcarbamoylindoline-5-sulfonyl)-4,5-dihydro-2-imidazolone], the IC50 is 0.178 µg/mL (≈ 0.385 µM) in experiment [1] (Table 3); 1.26 µg/mL (≈ 2.72 µM) in experiment [2] (setting [8]); 0.16 µg/mL (≈ 0.346 µM) in experiment [3] (SK-OV-3, Table 3, 48 hrs); less than 0.0064 µg/mL in experiment [4] (Table 3, read-out: IC50 (K562)). For the same compound, in experiment [5] (6.25 mg/kg i.p.), the “T/C rate (%)” value came to 140.9%.

Consider `COc1cccc2c1C(=O)c1c(O)c3c(c(O)c1C2=O)C[C@@](O)(C(=O)CO)C[C@@H]3O[C@H]1C[C@H](N)[C@H](O)[C@H](C)O1` [Doxorubicin, reference compound], for which the IC50 in experiment [1] (Table 1) was found to be 0.742 µg/mL (≈ 1.37 µM); in experiment [1] (Table 3), 0.67 µg/mL (≈ 1.23 µM); in experiment [1] (Table 4), 1.08 µg/mL (≈ 1.99 µM); in experiment [1] (Table 5), 1.68 µg/mL (≈ 3.09 µM); in experiment [7] (48 h), 0.914 µg/mL (≈ 1.68 µM); in experiment [2] (COLO 205, 48 h, read-out: IC50 (Col205), Table 3) it was 6.3 µg/mL (≈ 11.6 µM). Besides, the IC50 is 0.973 µg/mL (≈ 1.79 µM) in experiment [2] (COLO 205, 48 h, read-out: IC50 (Colo205), Table 1); 0.961 µg/mL (≈ 1.77 µM) in experiment [2] (COLO 205, 48 h, read-out: IC50 (Colo205), Table 5); 2.25 µg/mL (≈ 4.15 µM) in experiment [3] (SK-OV-3, 48 h, Table 1); 1.31 µg/mL (≈ 2.42 µM) in experiment [3] (SK-OV-3, 48 h, Table 3); 2.25 µg/mL (≈ 4.15 µM) in experiment [3] (SK-OV-3, 48 h, Table 4); 1.6 µg/mL (≈ 2.94 µM) in experiment [3] (SK-OV-3, 48 h, Table 5). Moreover, the half-inhibitory concentration (IC50) in experiment [4] (read-out: IC50 (K562), Table 3) came out at 0.276 µg/mL (≈ 0.508 µM); in experiment [4] (read-out: IC50 (K562), Table 4), 0.962 µg/mL (≈ 1.77 µM); in experiment [4] (read-out: IC50 (K562), Table 5) it was 0.78 µg/mL (≈ 1.44 µM).

Regarding `CCNC(=O)N1CCc2cc(S(=O)(=O)N3CC(c4ccccc4)NC3=O)ccc21` (centres unmarked) [Example 29, 4-phenyl-1-(N-ethylcarbamoylindoline-5-sulfonyl)4,5-dihydro-2-imidazolone], the IC50 in experiment [1] (Table 3) stood at 0.318 µg/mL (≈ 0.767 µM); in experiment [2] (setting [8]), 1 µg/mL (≈ 2.42 µM); in experiment [3] (SK-OV-3, Table 3, 48 hrs) it was 1.95 µg/mL (≈ 4.7 µM); in experiment [4] (Table 3, read-out: IC50 (K562)), 1 µg/mL (≈ 2.42 µM). Further, in experiment [5] (6.25 mg/kg i.p.), the “T/C rate (%)” value is recorded as 113.6%.

In the case of `Cl.NC(Cc1ccccc1)C(=O)Nc1ccc(C(=O)N2CCc3cc(S(=O)(=O)N4C[C@H](c5ccccc5)NC4=O)ccc32)cc1` (stereo partly drawn) [Example 68, (S)-(-)-4-phenyl-1-[N-{4-(2-amino-3-phenyl-propanoyl)aminobenzoyl}indoline-5-sulfonyl]-4,5-dihydro-2-imidazolone.HCl], the “IC50 (A549)” value in experiment [1] (Table 5, 48 hrs) was 0.083 µg/mL. For the same compound, in experiment [2] (Table 5, 48 hrs), the “IC50 (Colo205)” value came out at 0.598 µg/mL. Further, the “IC50 (SK-OV-3)” value in experiment [3] (Table 5, 48 hrs) amounted to 0.137 µg/mL. Besides, the “IC50 (K562)” value in experiment [4] (Table 5, 48 hrs) was 0.561 µg/mL. The “Inhibition rate of tumor growth (%)” value in experiment [6] amounted to 45.3%.
